According to patent publication US20230332103A1, “Methods and Compositions for Generating Human Forebrain Neural Progenitor Cells and for Maturation Thereof to Parvalbumin+ Interneurons” (Trailhead Biosystems Inc., priority 2021, published 2023):

What was measured:
[1] = system: stage 4 neural stem cells; assay: factor criticality analysis of stage 5 recipe; type: cell-based, human; conditions: FIG. 28-30
Protocol: To assess the impact of elimination of each validated factor, we again used dynamic profile analysis and compared the expression level of genes of interest in the absence of each finalized factor while others are present.
In the stage 5 recipe, each of seven finalized factors were removed while other factors were kept present and expression levels of PVALB and SST were assessed compared to the presence of all seven factors. […] 2-phospho-L-ascorbic acid, BDNF, IGF-1 were included in the stage 5 recipe (FIG. 28). […] Others were also found to increase the expression of somatostatin that was SST interneuron marker. So, they are excluded from the recipe and N2 was included in the stage 5 recipe (FIG. 29). […] Sodium pyruvate was included in the stage 5 recipe (FIG. 30).

[2] = system: stage 4 neural stem cells; assay: HD-DoE 8-factor experiment for stage 5 recipe (Forskolin, Arachidonic acid, VPA, BDNF, BT13, O-LPA, GW7646, Sodium pyruvate), optimized for PVALB; type: cell-based, human; conditions: for impact on expression of PVALB: dynamic profile analysis, FIG. 26
Protocol: To further guide the differentiation of forebrain-committed neural stem cells to PVALB interneuron cells, an additional HD-DoE experiment was performed for 3 days on cells that were treated with stage 1 to stage 4 media for total of 12 days prior to start of the experiment. This experiment included 8 effectors, Forskolin, Arachidonic acid, VPA, BDNF, BT13, O-LPA, GW7646, and Sodium pyruvate. In this model, we focused on maximum expression of PVALB gene expressed in PVALB (+) interneurons (Nahar et al. (2021) Front. Psych. 12:679960). When the model was optimized for maximum expression of PVALB, Forskolin, GW7646, Sodium Pyruvate had the highest factor contributions, 3.14, 27.2, and 17.1 respectively (FIG. 25).
So, it was excluded in the recipe.

Structure (SMILES): CC(=O)C(=O)[O-].[Na+] [Sodium pyruvate]
- contribution to expression of PVALB (Parvalbumin) [1]: contribute to PVALB expression
- impact on expression of PVALB [2]: significant effect
- impact on expression of PVALB ([2]; listed as sodium pyruvate): positive impact
- factor contribution on expression of PVALB ([2]; positive, model optimized for maximum expression of PVALB, FIG. 25): 17.1
